The source of these data is ChEMBL document CHEMBL3576845, “Discovery of Novel Multiacting Topoisomerase I/II and Histone Deacetylase Inhibitors” (ACS Med Chem Lett, 2015).

Test [1] concerns HCT-116. The test can be described thus: Induction of apoptosis in human HCT116 cells assessed as necrotic cells at 5 uM after 24 hrs by annexin V-FITC/propidium iodide staining-based flow cytometric analysis (reference value: 8%). It counts as functional. A general note: A flow cytometer gives signals particle by particle.
The test system of test [2] is HCT-116. The experiment in a line: Induction of apoptosis in human HCT116 cells assessed as necrotic cells at 5 uM after 48 hrs by annexin V-FITC/propidium iodide staining-based flow cytometric analysis (reference value: 5.25%). It counts as functional.
Another test addresses Histone deacetylase 2 (Homo sapiens, UniProt Q92769). The experiment in a line: Inhibition of recombinant C-terminal His-tagged full length human HDAC2 expressed in baculovirus infected insect Sf9 cells using fluorogenic HDAC substrate 3 after 30 mins by fluorescence assay. The format is cell-based.
Test [3] concerns HCT-116. The test can be described thus: Induction of apoptosis in human HCT116 cells assessed as early apoptotic cells at 5 uM after 48 hrs by annexin V-FITC/propidium iodide staining-based flow cytometric analysis (reference value: 2.76%). The format is functional.
The subject of test [4] is HCT-116. The experiment in a line: Induction of apoptosis in human HCT116 cells assessed as late apoptotic cells at 5 uM after 24 hrs by annexin V-FITC/propidium iodide staining-based flow cytometric analysis (reference value: 1.05%). The format is functional.
For test [5], the system named is HCT-116. The experiment in a line: Induction of apoptosis in human HCT116 cells assessed as early apoptotic cells at 5 uM after 24 hrs by annexin V-FITC/propidium iodide staining-based flow cytometric analysis (reference value: 2.27%). The format is functional.
Test [6] addresses T1, Protein deacetylase HDAC6 (Homo sapiens, UniProt Q9UBN7).
T1 sequence (Q9UBN7 whole entry): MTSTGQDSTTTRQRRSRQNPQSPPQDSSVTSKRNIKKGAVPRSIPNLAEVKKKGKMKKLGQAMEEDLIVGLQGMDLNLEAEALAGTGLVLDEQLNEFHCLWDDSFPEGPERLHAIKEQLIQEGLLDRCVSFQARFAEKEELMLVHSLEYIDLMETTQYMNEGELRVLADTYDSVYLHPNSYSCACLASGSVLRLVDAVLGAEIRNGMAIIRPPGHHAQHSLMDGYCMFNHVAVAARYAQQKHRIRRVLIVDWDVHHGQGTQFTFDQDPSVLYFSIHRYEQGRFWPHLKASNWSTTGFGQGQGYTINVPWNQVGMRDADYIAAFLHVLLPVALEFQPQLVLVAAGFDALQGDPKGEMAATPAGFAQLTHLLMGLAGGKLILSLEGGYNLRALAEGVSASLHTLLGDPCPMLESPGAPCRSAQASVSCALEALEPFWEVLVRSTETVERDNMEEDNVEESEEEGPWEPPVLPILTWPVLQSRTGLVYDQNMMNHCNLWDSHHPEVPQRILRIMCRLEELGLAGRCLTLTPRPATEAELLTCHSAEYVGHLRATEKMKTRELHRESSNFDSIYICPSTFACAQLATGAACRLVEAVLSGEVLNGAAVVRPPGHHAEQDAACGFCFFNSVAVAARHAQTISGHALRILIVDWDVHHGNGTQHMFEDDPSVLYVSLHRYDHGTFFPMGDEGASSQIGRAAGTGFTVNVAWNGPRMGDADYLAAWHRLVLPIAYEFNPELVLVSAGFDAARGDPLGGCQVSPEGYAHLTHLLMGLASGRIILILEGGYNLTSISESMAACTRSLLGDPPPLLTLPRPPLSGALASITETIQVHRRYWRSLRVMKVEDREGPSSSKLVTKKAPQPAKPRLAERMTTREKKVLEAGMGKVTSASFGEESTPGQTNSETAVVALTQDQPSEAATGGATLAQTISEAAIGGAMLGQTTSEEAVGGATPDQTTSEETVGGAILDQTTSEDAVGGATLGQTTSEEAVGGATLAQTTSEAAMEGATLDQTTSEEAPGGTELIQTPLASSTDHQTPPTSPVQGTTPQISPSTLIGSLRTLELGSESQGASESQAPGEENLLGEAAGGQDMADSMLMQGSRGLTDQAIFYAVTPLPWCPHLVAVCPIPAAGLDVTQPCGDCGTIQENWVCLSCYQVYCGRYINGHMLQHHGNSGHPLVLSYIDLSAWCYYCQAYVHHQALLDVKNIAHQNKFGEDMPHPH
The test can be described thus: Inhibition of recombinant N-terminal GST-tagged full length human HDAC6 expressed in baculovirus infected insect Sf9 cells using fluorogenic HDAC substrate 3 after 30 mins by fluorescence assay.

In test [7] the test system is HCT-116. The test can be described thus: Induction of apoptosis in human HCT116 cells assessed as late apoptotic cells at 5 uM after 48 hrs by annexin V-FITC/propidium iodide staining-based flow cytometric analysis (reference value: 3.03%). The format is functional.
The test system of test [8] is HCT-116. The test can be described thus: Cytotoxicity against human HCT116 cells assessed as growth inhibition after 72 hrs by MTT assay. It counts as functional, cell-based. To be noted: HCT-116, 72 h. (Tetrazolium dyes change colour on reduction, which living cells bring about.)

pIC50: −log10 of the molar value.

Histone deacetylase 2, sequence (Q92769 whole entry): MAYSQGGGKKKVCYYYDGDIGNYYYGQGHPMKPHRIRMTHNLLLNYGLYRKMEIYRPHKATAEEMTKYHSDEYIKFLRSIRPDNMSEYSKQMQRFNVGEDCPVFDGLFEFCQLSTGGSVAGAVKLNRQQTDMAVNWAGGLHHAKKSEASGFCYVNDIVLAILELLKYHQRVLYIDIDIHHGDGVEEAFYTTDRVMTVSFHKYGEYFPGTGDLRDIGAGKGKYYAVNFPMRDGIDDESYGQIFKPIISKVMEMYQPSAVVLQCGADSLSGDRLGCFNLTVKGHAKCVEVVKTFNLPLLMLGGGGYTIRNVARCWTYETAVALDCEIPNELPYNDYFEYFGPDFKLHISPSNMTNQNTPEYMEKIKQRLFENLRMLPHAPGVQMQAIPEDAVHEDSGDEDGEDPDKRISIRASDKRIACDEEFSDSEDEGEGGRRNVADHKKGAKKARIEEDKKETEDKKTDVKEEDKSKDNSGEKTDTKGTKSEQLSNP

A word on the pIC50: it is −log10 of the IC50, conventionally taken in molar units. With `CN1c2ccc(NCc3ccc(-c4noc(CCCCCCC(=O)NO)n4)cc3)cc2C(=O)N2CCc3c([nH]c4ccc(O)cc34)C21` (centres undefined), the Activity is 2.68% in the test with HCT-116 [1]; 7.96% with HCT-116 [2]; 29.76% in the test with HCT-116 [3]; 16.73% with HCT-116 [4]; 22.59% in the test with HCT-116 [5]; 42.14% with HCT-116 [7]. In addition, the negative-log IC50 (pIC50) on Histone deacetylase 2 is 6.56; in [6], 7.89; in the test on HCT-116 [8], 6.39.
